Reference: US11840551B2, “Compositions and methods of modulating the immune response by activating alpha protein kinase 1” (Shanghai Yao Yuan Biotechnology Co., Ltd., priority 2017, dated 2023)

How the values were obtained:
HBV = assay: HBV-AAV mouse model; format: in vivo, C57BL/6 mice
Method: Administration of Compound 28 (0.1 mg/kg, twice weekly “BIW”) led to downregulation of HBV DNA expression and a decrease in serum levels of HBsAg, and HBeAg in the HBV-AAV mouse model. At day 1, male C57BL/6 mice were intravenously injected with AAV8-1.3HBV (1×10^11 v/g). After days 28 and 31, each mouse was then intraperitoneally injected with 0.1 mg/kg compound 28 or PBS control. At day 35, mouse serum was collected for HBV DNA qPCR analysis, HBsAg and HBeAg serum analysis by ELISA.

HBsAg, adw = assay: Immunization with HBsAg, adw, specific total IgG serum titers (ELISA); format: in vivo, C57BL/6J mice; settings: intradermal, adw combined with 1 nmol/dose compound 28, days 0 and 14, sera at day 35
Method: Eight-week-old C57BL/6J mice (females) were intradermally (I.D.) immunized at day 0 with HBsAg, adw (1 mg/dose), or HBsAg, adw at 1 mg/dose combined with compound 28 (1 nmol/dose). Mice were boosted with a second immunization at day 14 and the sera collected at day 35. HBsAg, adw-specific total IgG serum titers (OD450) were determined by ELISA. Anti-HBsAg, adw IgG titers were more than 2× higher when HBsAg, adw was combined with 1 nmol/dose of compound 28 than when HBsAg, adw was injected alone (FIG. 35).

[1] = test system: eosinophils, dendritic cells, neutrophils; assay: Porcine pancreas elastase (PPE) model, immune cells in bronchoalveolar lavage (flow cytometry); format: in vivo, C57BL/6 mice; settings: 4 nmol/dose and 20 nmol/dose intraperitoneal on days -1, 0, 1; BAL on day 2
Method: Eight-week-old male C57BL/6 mice were grouped (N=8/group) and were intraperitoneally (I.P.) injected with compound 28 at 0, 4, or 20 nmol/dose on days −1, 0, and 1. In addition, mice were intratracheally (I.Tr.) administrated with 0 or 30 μg/dose of porcine pancreas elastase (PPE) dissolved in 50 μL saline on day 0. Mice were sacrificed on day 2 and the immune cells were collected by bronchoalveolar lavage (BAL). Cells were then subjected to fluorophore-conjugated antibody staining and analyzed by flow cytometry. Data were processed with a FlowJo […] (Treestar) Immune cells were gated as singlets >live cells>CD11c^highSiglecF^lowMHCII^high (dendritic cells), CD11c^lowCD11b^highLy-6G^high (neutrophils), and CD11c^lowCD11b^highLy-6G^lowSiglecF^high (eosinophils).

ALPK1 = target: T1, ALPK1 (Mus musculus, UniProt Q9CXB8); assay: Serum RANTES levels as marker of ALPK1 activation in vivo; set-up: species or system C57/B6 mice; settings: 10 nmole subcutaneous, serum at 24 hours or 48 hours, compared to Compound 15
T1 construct: C57/B6 mice (n=3 mice/group) were injected subcutaneously; from tissue; host or cells: whole animal, C57/B6 mice
T1 sequence (Q9CXB8 1-1231): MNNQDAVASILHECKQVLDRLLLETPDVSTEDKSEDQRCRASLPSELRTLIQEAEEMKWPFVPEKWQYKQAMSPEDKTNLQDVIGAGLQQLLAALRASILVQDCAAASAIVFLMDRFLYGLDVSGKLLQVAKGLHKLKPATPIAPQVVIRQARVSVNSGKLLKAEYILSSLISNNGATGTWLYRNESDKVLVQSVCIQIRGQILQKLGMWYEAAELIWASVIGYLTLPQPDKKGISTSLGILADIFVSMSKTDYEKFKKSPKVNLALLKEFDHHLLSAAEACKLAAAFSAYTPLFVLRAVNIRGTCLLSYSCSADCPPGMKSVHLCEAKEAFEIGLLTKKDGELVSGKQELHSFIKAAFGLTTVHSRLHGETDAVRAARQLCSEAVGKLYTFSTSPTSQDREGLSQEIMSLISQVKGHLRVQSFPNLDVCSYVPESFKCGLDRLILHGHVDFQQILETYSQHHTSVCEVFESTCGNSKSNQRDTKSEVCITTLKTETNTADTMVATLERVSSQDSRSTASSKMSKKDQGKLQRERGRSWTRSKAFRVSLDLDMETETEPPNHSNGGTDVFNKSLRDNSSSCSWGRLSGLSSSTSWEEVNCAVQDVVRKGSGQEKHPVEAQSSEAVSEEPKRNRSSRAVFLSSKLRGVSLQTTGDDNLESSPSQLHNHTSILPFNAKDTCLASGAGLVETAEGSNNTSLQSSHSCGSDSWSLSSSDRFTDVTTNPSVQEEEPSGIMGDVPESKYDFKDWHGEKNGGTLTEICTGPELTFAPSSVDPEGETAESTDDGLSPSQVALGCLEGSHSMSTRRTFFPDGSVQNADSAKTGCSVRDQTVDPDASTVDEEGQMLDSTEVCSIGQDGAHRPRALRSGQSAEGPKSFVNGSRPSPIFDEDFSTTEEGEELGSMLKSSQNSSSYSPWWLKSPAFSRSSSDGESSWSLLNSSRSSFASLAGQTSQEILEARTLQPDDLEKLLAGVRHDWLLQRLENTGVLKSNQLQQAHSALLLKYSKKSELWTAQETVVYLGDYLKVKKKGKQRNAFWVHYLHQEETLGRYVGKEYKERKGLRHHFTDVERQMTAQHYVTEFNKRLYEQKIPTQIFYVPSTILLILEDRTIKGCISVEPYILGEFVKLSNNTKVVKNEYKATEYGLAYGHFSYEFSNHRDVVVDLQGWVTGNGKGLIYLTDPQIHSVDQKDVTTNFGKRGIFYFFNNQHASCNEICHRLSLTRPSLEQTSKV
Method: The ability of Compounds 15 and 28 to stimulate ALPK1 activation in vivo was tested by monitoring serum levels of the chemokine RANTES (CCLS), which is elevated upon activation of ALPK1. Briefly, C57/B6 mice (n=3 mice/group) were injected subcutaneously with PBS (negative control) or 10 nmole of Compound 15 or Compound 28. Serum was collected at 24 hours or 48 hours post injection.

[2] = 0.1 mg/kg intraperitoneal at days 28 and 31, serum at day 35, ELISA

Question: With CC(=O)OC[C@H](F)[C@H]1O[C@@H](OP(=O)(O)OP(O)(=S)OC[C@H]2O[C@@H](n3cnc4c(N)ncnc43)[C@H](O)[C@@H]2O)[C@@H](OC(C)=O)[C@@H](OC(C)=O)[C@@H]1OC(C)=O (stereo partly drawn) [Compound 28, (2S,3S,4S,5S,6S)-2-((S)-2-acetoxy-1-fluoroethyl)-6-(((((((2R,3S,4R,5R)-5-(6-amino-9H-purin-9-yl)-3,4-dihydroxytetrahydrofuran-2-yl)methoxy)(hydroxy)phosphorothioyl)oxy)(hydroxy)phosphoryl)oxy)tetrahydro-2H-pyran-3,4,5-triyl triacetate] as the compound, how does the “serum levels of HBeAg” value (HBV; [2]) read?
Answer: marked decrease

Question: And the “serum levels of HBsAg” value (HBV; [2])?
Answer: marked decrease

Question: What about the “HBV DNA expression” value (HBV; 0.1 mg/kg intraperitoneal at days 28 and 31, serum at day 35, qPCR) of the same compound?
Answer: marked decrease

Question: What about the “Anti-HBsAg, adw IgG titers relative to HBsAg, adw injected alone” value (HBsAg, adw) of the same compound?
Answer: more than 2 ×

Question: And the “increase in the production of dendritic cells after PPE administration” value [1]?
Answer: significantly suppressed

Question: What about the “increase in the production of eosinophils after PPE administration” value [1] of the same compound?
Answer: significantly suppressed

Question: What about the “increased production of neutrophils after PPE administration” value [1] of the same compound?
Answer: also suppressed but only at the 20 nmol/dose level

Question: And the “duration of immune activation (serum RANTES)” value (ALPK1)?
Answer: showed a longer duration of immune activation
